Data set [1] concerns the target T1, PtNTT2(66-575) (Phaeodactylum tricornutum, UniProt B7FWL8).
T1 sequence (B7FWL8 66-575): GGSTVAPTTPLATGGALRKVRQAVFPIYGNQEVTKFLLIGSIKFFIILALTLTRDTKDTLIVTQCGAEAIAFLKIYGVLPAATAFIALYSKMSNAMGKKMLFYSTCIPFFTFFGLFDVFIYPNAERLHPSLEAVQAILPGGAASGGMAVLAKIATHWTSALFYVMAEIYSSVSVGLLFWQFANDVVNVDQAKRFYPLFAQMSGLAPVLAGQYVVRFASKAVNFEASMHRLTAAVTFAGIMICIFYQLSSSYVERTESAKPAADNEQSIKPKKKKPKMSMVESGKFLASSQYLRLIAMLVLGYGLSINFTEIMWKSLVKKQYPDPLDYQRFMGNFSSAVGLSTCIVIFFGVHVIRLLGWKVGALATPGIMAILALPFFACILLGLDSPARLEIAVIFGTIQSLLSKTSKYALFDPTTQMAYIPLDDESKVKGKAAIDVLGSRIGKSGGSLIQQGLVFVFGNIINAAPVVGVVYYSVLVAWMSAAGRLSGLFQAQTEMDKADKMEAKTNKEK
Put plainly: inhibition of [α-32P]ATP uptake into E. coli YZ2 cells. The class given is cell-based. To be noted: read-out: % inhibition at 500 μM.

Substrate in data set [2]: Nc1ncnc2c1ncn2[C@@H]1O[C@H](COP(=O)(O)OP(=O)(O)OP(=O)(O)O)[C@@H](O)[C@H]1O
Nature of the data set: radiolabelled uptake into E. coli YZ2 cells, filter assay. The class given is cell-based, Phaeodactylum tricornutum. To be noted: whole-cell uptake; labelled compound ([α-32P]ATP).

For orientation: inhibition means how much of the control response was suppressed. `Nc1nc(=O)n([C@@H]2O[C@H](COP(=O)(O)OP(=O)(O)OP(=O)(O)O)[C@@H](O)[C@H]2O)cc1I` [5-ICTP]: the inhibition at 500 µM in data set [1] worked out at 96.6 ± 1.3%.
On to `Nc1nc(=O)n([C@H]2C[C@H](O)[C@@H](COP(=O)(O)OP(=O)(O)OP(=O)(O)O)O2)cc1I` [5-IdCTP], for which, in data set [1], the inhibition at 500 µM was found to be 73.6 ± 1.8%.
As to `Nc1nc(=O)n([C@@H]2O[C@H](COP(=O)(O)OP(=O)(O)OP(=O)(O)O)[C@@H](O)[C@H]2O)cc1CO` [5-hmCTP], the inhibition at 500 µM in data set [1] is 76.3 ± 2.9%.
Turning to `Nc1nc2c(ncn2COCCOP(=O)(O)OP(=O)(O)OP(=O)(O)O)c(=O)[nH]1` [ACVTP], the inhibition at 500 µM in data set [1] was determined as 68.6 ± 5.5%.
Same read-out and setting: for `Cc1cn([C@H]2C[C@H](N=[N+]=[N-])[C@@H](COP(=O)(O)OP(=O)(O)OP(=O)(O)O)O2)c(=O)[nH]c1=O` [AZTTP] the value was 56.9 ± 12%; for `Nc1ccn([C@@H]2O[C@H](COP(=O)(O)OP(=O)(O)OP(=O)(O)O)[C@@H](O)[C@@H]2O)c(=O)n1` [Ara-CTP], 81.3 ± 5.2%; for `Nc1nc2c(ncn2[C@@H]2O[C@H](COP(=O)(O)OP(=O)(O)OP(=O)(O)O)[C@@H](O)[C@@H]2O)c(=O)[nH]1` [Ara-GTP], 47.8 ± 7.9%.
As to `Nc1ccn([C@@H]2O[C@H](COP(=O)(O)OP(=O)(O)OP(=O)(O)O)[C@@H](O)[C@H]2O)c(=O)n1` [CTP], the inhibition at 500 µM in data set [1] is 70.5 ± 4.9%.
Consider `Nc1nc2c(ncn2[C@@H]2O[C@H](COP(=O)(O)OP(=O)(O)OP(=O)(O)O)[C@@H](O)[C@H]2O)c(=O)[nH]1` [GTP], for which the inhibition at 500 µM in data set [1] was 60.4 ± 1.4%.
Consider `Nc1ccn([C@H]2C[C@H](O)[C@@H](COP(=O)(O)OP(=O)(O)OP(=O)(O)O)O2)c(=O)n1` [dCTP], for which the inhibition at 500 µM in data set [1] stood at 76.3 ± 2.8%.
For `Nc1nc2c(ncn2[C@H]2C[C@H](O)[C@@H](COP(=O)(O)OP(=O)(O)OP(=O)(O)O)O2)c(=O)[nH]1` [dGTP], the inhibition at 500 µM in data set [1] came out at 55.3 ± 3.6%.

B1: PtNTT2(66-575) (Phaeodactylum tricornutum CCAP 1055/1) (protein)
chain: GGSTVAPTTPLATGGALRKVRQAVFPIYGNQEVTKFLLIGSIKFFIILALTLTRDTKDTLIVTQCGAEAIAFLKIYGVLPAATAFIALYSKMSNAMGKKMLFYSTCIPFFTFFGLFDVFIYPNAERLHPSLEAVQAILPGGAASGGMAVLAKIATHWTSALFYVMAEIYSSVSVGLLFWQFANDVVNVDQAKRFYPLFAQMSGLAPVLAGQYVVRFASKAVNFEASMHRLTAAVTFAGIMICIFYQLSSSYVERTESAKPAADNEQSIKPKKKKPKMSMVESGKFLASSQYLRLIAMLVLGYGLSINFTEIMWKSLVKKQYPDPLDYQRFMGNFSSAVGLSTCIVIFFGVHVIRLLGWKVGALATPGIMAILALPFFACILLGLDSPARLEIAVIFGTIQSLLSKTSKYALFDPTTQMAYIPLDDESKVKGKAAIDVLGSRIGKSGGSLIQQGLVFVFGNIINAAPVVGVVYYSVLVAWMSAAGRLSGLFQAQTEMDKADKMEAKTNKEK
The term Km denotes the concentration of substrate that gives half-maximal velocity. As for B1, in data set [2], the Km was found to be 186.0 ± 21.1 µM.

For the origin of these results see publication PMC5809120 (Journal of the American Chemical Society, 2018).
